Literature values, collected in patent US6699847B2, “Antiparasitic formulation” (Pfizer Inc., priority 1998, dated 2004).

SMILES: CO[C@H]1C[C@H](O[C@H]2[C@H](C)O[C@@H](O[C@@H]3/C(C)=C/C[C@@H]4C[C@@H](C[C@]5(C=C[C@H](C)[C@@H](C6CCCCC6)O5)O4)OC(=O)[C@@H]4C=C(C)[C@@H](O)[C@H]5OC/C(=C\C=C\[C@@H]3C)[C@]54O)C[C@@H]2OC)O[C@@H](C)[C@@H]1O [Doramectin]
- solubility in water: sparingly soluble
